The source of these data is publication PMC9821906, “Synthesis of New Triazole-Based Thiosemicarbazone Derivatives as Anti-Alzheimer’s Disease Candidates: Evidence-Based In Vitro Study” (Molecules, 2022).

Assay [1] deals with acetylcholinesterase (AChE) (Homo sapiens, UniProt P22303). In kind it is biochemical. On the procedure:
(§1) Based on previously described methods, in vitro study of AChE inhibitory profile was calculated. In order to make a stock solution, compounds being analyzed were dissolved in DMSO (1 mg/mL). In addition, the working solutions were also prepared by using serial dilution (1–100 μg/mL). The solution of AChE enzyme (20 μL; 0.1 U/mL), analogues being tested with different concentration and buffer of sodium phosphate (150 μL; pH 8.0; 0.1 M) were preincubated appropriately at 25 °C. The process was initiated as DTNB (10 mM; 10 μL) and […] (14 mM; 10 μL) were accumulated. The resulting residue was mixed (by using cyclomixer) and put on incubation for 10 min at 25 °C. Instead of compounds being tested using 10 μL DMSO, the absorbance against blank reading was calculated with a microplate reader at 410 nm.
(§2) By plotting a nonlinear graph between inhibition and concentration, IC50 was calculated using GraphPad Prism 5.3.

Assay [2] addresses butyrylcholinesterase (BuChE) (Homo sapiens, UniProt P06276). In kind it is biochemical. On the procedure: as §1, §2
In order to explore the inhibition profile of in vitro BuChE enzyme, a similar procedure was adopted. For measurement of BuChE activity, the solution containing BuChE enzyme was used.

Chain of butyrylcholinesterase (BuChE) (P06276 29-602): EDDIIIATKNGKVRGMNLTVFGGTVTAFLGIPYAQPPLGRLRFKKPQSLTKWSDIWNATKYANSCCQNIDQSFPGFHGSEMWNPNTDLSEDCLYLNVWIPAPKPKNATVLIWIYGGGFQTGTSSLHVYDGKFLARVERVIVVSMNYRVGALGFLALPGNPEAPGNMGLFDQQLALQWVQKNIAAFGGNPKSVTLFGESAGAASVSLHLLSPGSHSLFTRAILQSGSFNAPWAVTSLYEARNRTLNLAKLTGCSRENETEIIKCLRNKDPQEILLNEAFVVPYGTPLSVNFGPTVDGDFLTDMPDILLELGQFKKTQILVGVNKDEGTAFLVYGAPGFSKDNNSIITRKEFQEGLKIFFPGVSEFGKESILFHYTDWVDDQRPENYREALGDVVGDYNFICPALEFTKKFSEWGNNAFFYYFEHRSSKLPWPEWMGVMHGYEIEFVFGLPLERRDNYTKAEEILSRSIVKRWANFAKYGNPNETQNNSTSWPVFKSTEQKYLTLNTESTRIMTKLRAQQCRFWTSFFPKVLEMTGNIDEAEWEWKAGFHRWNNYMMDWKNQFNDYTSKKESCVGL
Chain of acetylcholinesterase (AChE) (P22303 32-614, species assumed): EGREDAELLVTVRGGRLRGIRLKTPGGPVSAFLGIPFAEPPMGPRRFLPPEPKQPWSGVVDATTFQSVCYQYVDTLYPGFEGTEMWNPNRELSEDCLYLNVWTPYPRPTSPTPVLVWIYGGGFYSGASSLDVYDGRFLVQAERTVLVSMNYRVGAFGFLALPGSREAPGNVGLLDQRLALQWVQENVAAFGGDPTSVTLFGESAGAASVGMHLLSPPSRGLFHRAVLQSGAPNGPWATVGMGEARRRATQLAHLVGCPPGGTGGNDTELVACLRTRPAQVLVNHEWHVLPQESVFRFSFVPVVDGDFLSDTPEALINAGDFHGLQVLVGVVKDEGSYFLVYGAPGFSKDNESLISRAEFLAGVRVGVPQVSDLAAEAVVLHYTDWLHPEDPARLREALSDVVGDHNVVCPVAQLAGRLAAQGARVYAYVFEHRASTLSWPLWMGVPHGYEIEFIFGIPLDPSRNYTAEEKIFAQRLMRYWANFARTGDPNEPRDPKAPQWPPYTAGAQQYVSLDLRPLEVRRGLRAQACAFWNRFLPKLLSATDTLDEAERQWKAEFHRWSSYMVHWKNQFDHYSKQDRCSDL

`O=[N+]([O-])c1ccc(-c2nnc(SC/C(=N/NC(=S)Nc3cc(Cl)c(Cl)cc3[N+](=O)[O-])c3ccccc3Br)[nH]2)cc1` [6a, (.E)-2-(1-(2-bromophenyl)-2-((5-(4-nitrophenyl)-4H-1,2,4-triazol-3-yl)thio)ethylidene)-N-(4,5-dichloro-2-nitrophenyl)hydrazine-1-carbothioamide]: in assay [1], half-maximal inhibition (IC50) was put at 2.2 ± 0.1 µM and the “Selectivity Index” value is 1.77. In addition, the midpoint of inhibition in assay [2], the IC50, lay at 3.9 ± 0.1 µM.
Consider `O=[N+]([O-])c1ccc(-c2nnc(SC/C(=N/NC(=S)Nc3ccccc3)c3ccc(-c4ccccc4)cc3)[nH]2)cc1` [6c, (.E)-2-(1-([1,1′-biphenyl]-4-yl)-2-((5-(4-nitrophenyl)-4H-1,2,4-triazol-3-yl)thio)ethylidene)-N-phenylhydrazine-1-carbothioamide], for which, in assay [1], the “AChE IC50” value was “completely inactive”. Further, the “BuChE IC50” value in assay [2] is “completely inactive”.
As for `Cc1ccc(-c2ccc(NC(=S)N/N=C(/CSc3nnc(-c4ccc([N+](=O)[O-])cc4)[nH]3)c3ccc(-c4ccccc4)cc3)cc2)cc1` [6d, (.E)-2-(1-([1,1′-biphenyl]-4-yl)-2-((5-(4-nitrophenyl)-4H-1,2,4-triazol-3-yl)thio)ethylidene)-N-(4′-methyl-[1,1′-biphenyl]-4-yl)hydrazine-1-carbothioamide], the “AChE IC50” value in assay [1] is “completely inactive”. The “BuChE IC50” value in assay [2] is “completely inactive”.
On to `O=[N+]([O-])c1ccc(-c2nnc(SC/C(=N/NC(=S)Nc3cccc([N+](=O)[O-])c3)c3ccc(-c4ccccc4)cc3)[nH]2)cc1` [6e, (.E)-2-(1-([1,1′-biphenyl]-4-yl)-2-((5-(4-nitrophenyl)-4H-1,2,4-triazol-3-yl)thio)ethylidene)-N-(3-nitrophenyl)hydrazine-1-carbothioamide], for which, in assay [1], the IC50 (in general, the midpoint of a concentration-inhibition curve) was determined as 4.7 ± 0.1 µM and the “Selectivity Index” value was determined as 1.34. Besides, in assay [2], half-maximal inhibition (IC50) was put at 6.3 ± 0.1 µM.
The corresponding values for `COc1ccc(OC)c(/C(CSc2nnc(-c3ccc([N+](=O)[O-])cc3)[nH]2)=N\NC(=S)Nc2ccc(C)cc2[N+](=O)[O-])c1` [6f, (.E)-2-(1-(2,5-dimethoxyphenyl)-2-((5-(4-nitrophenyl)-4H-1,2,4-triazol-3-yl)thio)ethylidene)-N-(4-methyl-2-nitrophenyl)hydrazine-1-carbothioamide] are 2.4 ± 0.1 µM, 1.96 and 4.7 ± 0.1 µM.
The corresponding values for `COc1ccc(OC)c(/C(CSc2nnc(-c3ccc([N+](=O)[O-])cc3)[nH]2)=N\NC(=S)Nc2ccc([N+](=O)[O-])cc2)c1` [6g, (.E)-2-(1-(2,5-dimethoxyphenyl)-2-((5-(4-nitrophenyl)-4H-1,2,4-triazol-3-yl)thio)ethylidene)-N-(4-nitrophenyl)hydrazine-1-carbothioamide] are 2.1 ± 0.1 µM, 2.04 and 4.3 ± 0.1 µM.
As to `Cc1ccc(NC(=S)N/N=C(/CSc2nnc(-c3ccc([N+](=O)[O-])cc3)[nH]2)c2ccc(Br)cc2)c([N+](=O)[O-])c1` [6h, (.E)-2-(1-(4-bromophenyl)-2-((5-(4-nitrophenyl)-4H-1,2,4-triazol-3-yl)thio)ethylidene)-N-(4-methyl-2-nitrophenyl)hydrazine-1-carbothioamide], in assay [1], half-maximal inhibition (IC50) was put at 9.1 ± 0.2 µM and the “Selectivity Index” value amounted to 1.23. In assay [2], this molecule showed an IC50 of 11.2 ± 0.3 µM.
For `CN(C)c1cc(Cl)c(NC(=S)N/N=C(/CSc2nnc(-c3ccc([N+](=O)[O-])cc3)[nH]2)c2ccc(-c3ccccc3)cc2)cc1Cl` [6j, (.E)-2-(1-([1,1′-biphenyl]-4-yl)-2-((5-(4-nitrophenyl)-4H-1,2,4-triazol-3-yl)thio)ethylidene)-N-(2,5-dichloro-4-(dimethylamino)phenyl)hydrazine-1-carbothioamide], the results for the IC50 in assay [1] and in assay [2] were 11.3 ± 0.3 µM and 12.3 ± 0.3 µM, respectively. In assay [1], the “Selectivity Index” value turned out to be 1.09.
Take `Cc1ccc(-c2ccc(NC(=S)N/N=C(/CSc3nnc(-c4ccc([N+](=O)[O-])cc4)[nH]3)c3ccc(Br)cc3)cc2)cc1` [6k, (.E)-2-(1-(4-bromophenyl)-2-((5-(4-nitrophenyl)-4H-1,2,4-triazol-3-yl)thio)ethylidene)-N-(4′-methyl-[1,1′-biphenyl]-4-yl)hydrazine-1-carbothioamide]: the figures for the IC50 in assay [1] and in assay [2] were 12.2 ± 0.3 µM and 14.1 ± 0.4 µM, respectively. In assay [1], the “Selectivity Index” value is 1.15.
The corresponding values for `Cc1ccc(/C(CSc2nnc(-c3ccc([N+](=O)[O-])cc3)[nH]2)=N\NC(=S)Nc2cc(Cl)c(Cl)cc2[N+](=O)[O-])c([N+](=O)[O-])c1` [6l, (.E)-N-(4,5-dichloro-2-nitrophenyl)-2-(1-(4-methyl-2-nitrophenyl)-2-((5-(4-nitrophenyl)-4H-1,2,4-triazol-3-yl)thio)ethylidene)hydrazine-1-carbothioamide] are 4.6 ± 0.01 µM, 5.9 ± 0.1 µM and 1.28.
The corresponding values for `Cc1ccc(NC(=S)N/N=C(/CSc2nnc(-c3ccc([N+](=O)[O-])cc3)[nH]2)c2ccc(Cl)c(Cl)c2)c([N+](=O)[O-])c1` [6m, (.E)-2-(1-(3,4-dichlorophenyl)-2-((5-(4-nitrophenyl)-4H-1,2,4-triazol-3-yl)thio)ethylidene)-N-(4-methyl-2-nitrophenyl)hydrazine-1-carbothioamide] are 2.7 ± 0.1 µM, 3.8 ± 0.1 µM and 1.41.
The corresponding values for `O=[N+]([O-])c1ccc(NC(=S)N/N=C(/CSc2nnc(-c3ccc([N+](=O)[O-])cc3)[nH]2)c2ccc(Cl)c(Cl)c2)cc1` [6n, (.E)-2-(1-(3,4-dichlorophenyl)-2-((5-(4-nitrophenyl)-4H-1,2,4-triazol-3-yl)thio)ethylidene)-N-(4-nitrophenyl)hydrazine-1-carbothioamide] are 0.7 ± 0.05 µM, 1.7 ± 0.05 µM and 2.43.
As for `O=[N+]([O-])c1ccc(-c2nnc(SC/C(=N/NC(=S)Nc3ccccc3)c3ccc(Cl)c(Cl)c3)[nH]2)cc1` [6o, (.E)-2-(1-(3,4-dichlorophenyl)-2-((5-(4-nitrophenyl)-4H-1,2,4-triazol-3-yl)thio)ethylidene)-N-phenylhydrazine-1-carbothioamide], in assay [1], half-maximal inhibition (IC50) was put at 2.5 ± 0.3 µM and the “Selectivity Index” value turned out to be 1.24. In addition, 3.1 ± 0.4 µM corresponded to half-maximal inhibition in assay [2] (IC50).
`Cc1ccc(-c2ccc(NC(=S)N/N=C(/CSc3nnc(-c4ccc([N+](=O)[O-])cc4)[nH]3)c3ccc(Cl)c(Cl)c3)cc2)cc1` [6p, (.E)-2-(1-(3,4-dichlorophenyl)-2-((5-(4-nitrophenyl)-4H-1,2,4-triazol-3-yl)thio)ethylidene)-N-(4′-methyl-[1,1′-biphenyl]-4-yl)hydrazine-1-carbothioamide]: in assay [1], the IC50 was 3.2 ± 0.1 µM and the “Selectivity Index” value is on record as 1.44. The same molecule returned a concentration for half-maximal inhibition (IC50) in assay [2] of 4.6 ± 0.1 µM.
Turning to `Cc1ccc(NC(=S)N/N=C(/CSc2nnc(-c3ccc([N+](=O)[O-])cc3)[nH]2)c2ccccc2[N+](=O)[O-])c([N+](=O)[O-])c1` [6r, (.E)-N-(4-methyl-2-nitrophenyl)-2-(1-(2-nitrophenyl)-2-((5-(4-nitrophenyl)-4H-1,2,4-triazol-3-yl)thio)ethylidene)hydrazine-1-carbothioamide], in assay [1], half-maximal inhibition (IC50) was put at 1.3 ± 0.05 µM and the “Selectivity Index” value is listed as 1.69. Further, the IC50 in assay [2] amounted to 2.2 ± 0.1 µM.
The corresponding values for `O=[N+]([O-])c1ccc(NC(=S)N/N=C(/CSc2nnc(-c3ccc([N+](=O)[O-])cc3)[nH]2)c2ccccc2[N+](=O)[O-])cc1` [6s, (.E)-N-(4-nitrophenyl)-2-(1-(2-nitrophenyl)-2-((5-(4-nitrophenyl)-4H-1,2,4-triazol-3-yl)thio)ethylidene)hydrazine-1-carbothioamide] are 1.4 ± 0.05 µM, 1.64 and 2.3 ± 0.1 µM.
The corresponding values for `COc1cccc(/C(CSc2nnc(-c3ccc([N+](=O)[O-])cc3)[nH]2)=N\NC(=S)Nc2ccc(C)cc2[N+](=O)[O-])c1` [6t, (.E)-2-(1-(3-methoxyphenyl)-2-((5-(4-nitrophenyl)-4H-1,2,4-triazol-3-yl)thio)ethylidene)-N-(4-methyl-2-nitrophenyl)hydrazine-1-carbothioamide] are 1.9 ± 0.1 µM, 1.32 and 2.5 ± 0.1 µM.
The corresponding values for `COc1cccc(/C(CSc2nnc(-c3ccc([N+](=O)[O-])cc3)[nH]2)=N\NC(=S)Nc2ccc([N+](=O)[O-])cc2)c1` [6u, (.E)-2-(1-(3-methoxyphenyl)-2-((5-(4-nitrophenyl)-4H-1,2,4-triazol-3-yl)thio)ethylidene)-N-(4-nitrophenyl)hydrazine-1-carbothioamide] are 2.9 ± 0.1 µM, 1.28 and 3.7 ± 0.1 µM.
